Laboratory results: ChEMBL document CHEMBL5696442, “Discovery of type II inhibitors of TGFβ-activated kinase 1 (TAK1) and mitogen-activated protein kinase kinase kinase kinase 2 (MAP4K2)” (J Med Chem, 2015)
Activity calls are given as the source filed them. The calls are words filed in the database; no cut-off is given here.

Columns and labels:
[1] = target: Ribosomal protein S6 kinase alpha-3 (Homo sapiens) (UniProt P51812); assay: Inhibition of RSK2 domain2 Lys2 labeling site harbouring TVEYLHAQGVVHRDLKPSNILYVDESGNPESIR in human Huh-7 cell lysate at 1 uM by KiNativ Profiling analysis relative to control; assay type: subcellular
[2] = target: Mitogen-activated protein kinase 15 (Homo sapiens) (UniProt Q8TD08); assay: Inhibition of ERK8 (unknown origin) at 10 uM by Ambit Kinomescan binding assay
[3] = tested on: Fibroblast growth factor receptor 3 (Homo sapiens), P22607 [G697C]; assay: Inhibition of FGFR3 G697C mutant (unknown origin) at 10 uM by Ambit Kinomescan binding assay relative to control
[4] = target: T1, Mitogen-activated protein kinase kinase kinase 5 (Homo sapiens) (UniProt Q99683); assay: Inhibition of MAP3K5 Lys1 labeling site harbouring IAIKEIPERDSR in human A-375 cells at 0.05 uM by KiNativ Profiling analysis relative to control; assay type: cell-based
T1 sequence (whole entry): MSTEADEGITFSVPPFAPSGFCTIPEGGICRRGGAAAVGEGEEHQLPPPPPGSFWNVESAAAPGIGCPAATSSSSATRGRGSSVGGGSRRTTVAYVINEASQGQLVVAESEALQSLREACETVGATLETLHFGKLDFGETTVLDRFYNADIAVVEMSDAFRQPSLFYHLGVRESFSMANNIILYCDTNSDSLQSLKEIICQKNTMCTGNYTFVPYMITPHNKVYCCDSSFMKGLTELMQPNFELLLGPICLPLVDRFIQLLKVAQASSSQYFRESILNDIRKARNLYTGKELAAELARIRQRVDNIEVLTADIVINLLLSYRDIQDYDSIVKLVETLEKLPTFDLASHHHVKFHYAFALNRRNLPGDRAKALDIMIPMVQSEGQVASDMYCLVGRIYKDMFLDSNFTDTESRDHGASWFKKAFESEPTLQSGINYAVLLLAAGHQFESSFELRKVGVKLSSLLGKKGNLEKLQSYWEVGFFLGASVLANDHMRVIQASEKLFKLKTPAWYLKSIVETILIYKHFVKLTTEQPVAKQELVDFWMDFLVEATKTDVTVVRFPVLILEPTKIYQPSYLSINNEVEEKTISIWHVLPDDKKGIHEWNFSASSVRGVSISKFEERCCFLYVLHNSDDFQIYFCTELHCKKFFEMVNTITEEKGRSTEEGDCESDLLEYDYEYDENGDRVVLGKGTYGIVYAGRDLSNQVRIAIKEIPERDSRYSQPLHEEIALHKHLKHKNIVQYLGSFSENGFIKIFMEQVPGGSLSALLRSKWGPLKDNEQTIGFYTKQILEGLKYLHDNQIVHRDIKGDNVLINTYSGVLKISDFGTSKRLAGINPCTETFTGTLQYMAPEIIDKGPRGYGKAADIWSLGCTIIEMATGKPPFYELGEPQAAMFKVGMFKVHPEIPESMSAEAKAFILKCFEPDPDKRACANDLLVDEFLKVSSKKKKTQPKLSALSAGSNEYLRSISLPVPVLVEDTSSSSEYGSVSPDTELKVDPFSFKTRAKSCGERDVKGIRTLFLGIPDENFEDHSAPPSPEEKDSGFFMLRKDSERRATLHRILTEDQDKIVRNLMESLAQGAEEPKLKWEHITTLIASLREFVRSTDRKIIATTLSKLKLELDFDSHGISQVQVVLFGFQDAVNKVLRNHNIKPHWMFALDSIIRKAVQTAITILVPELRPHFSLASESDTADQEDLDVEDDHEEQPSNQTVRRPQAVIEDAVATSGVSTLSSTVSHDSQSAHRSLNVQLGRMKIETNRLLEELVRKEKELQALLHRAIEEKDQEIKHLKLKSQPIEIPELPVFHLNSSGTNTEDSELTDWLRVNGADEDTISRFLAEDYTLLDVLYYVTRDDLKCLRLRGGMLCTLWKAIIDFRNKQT

[5] = target: Serine/threonine-protein kinase 38 (Homo sapiens) (UniProt Q15208); assay: Inhibition of NDR1 ACT labeling site in human A-375 cells at 5 uM by KiNativ Profiling analysis relative to control; assay type: cell-based
[6] = target: Cyclin-dependent kinase 1 (Homo sapiens) (UniProt P06493); assay: Inhibition of CDC2 Lys2 labeling site harbouring DLKPQNLLIDDKGTIK in human A-375 cells at 0.05 uM by KiNativ Profiling analysis relative to control; assay type: cell-based
[7] = target: T2, Atrial natriuretic peptide receptor 2 (Homo sapiens) (UniProt P20594); assay: Inhibition of ANPb Lys2 labeling site in human A-375 cells at 0.05 uM by KiNativ Profiling analysis relative to control; assay type: cell-based
T2 sequence (whole entry): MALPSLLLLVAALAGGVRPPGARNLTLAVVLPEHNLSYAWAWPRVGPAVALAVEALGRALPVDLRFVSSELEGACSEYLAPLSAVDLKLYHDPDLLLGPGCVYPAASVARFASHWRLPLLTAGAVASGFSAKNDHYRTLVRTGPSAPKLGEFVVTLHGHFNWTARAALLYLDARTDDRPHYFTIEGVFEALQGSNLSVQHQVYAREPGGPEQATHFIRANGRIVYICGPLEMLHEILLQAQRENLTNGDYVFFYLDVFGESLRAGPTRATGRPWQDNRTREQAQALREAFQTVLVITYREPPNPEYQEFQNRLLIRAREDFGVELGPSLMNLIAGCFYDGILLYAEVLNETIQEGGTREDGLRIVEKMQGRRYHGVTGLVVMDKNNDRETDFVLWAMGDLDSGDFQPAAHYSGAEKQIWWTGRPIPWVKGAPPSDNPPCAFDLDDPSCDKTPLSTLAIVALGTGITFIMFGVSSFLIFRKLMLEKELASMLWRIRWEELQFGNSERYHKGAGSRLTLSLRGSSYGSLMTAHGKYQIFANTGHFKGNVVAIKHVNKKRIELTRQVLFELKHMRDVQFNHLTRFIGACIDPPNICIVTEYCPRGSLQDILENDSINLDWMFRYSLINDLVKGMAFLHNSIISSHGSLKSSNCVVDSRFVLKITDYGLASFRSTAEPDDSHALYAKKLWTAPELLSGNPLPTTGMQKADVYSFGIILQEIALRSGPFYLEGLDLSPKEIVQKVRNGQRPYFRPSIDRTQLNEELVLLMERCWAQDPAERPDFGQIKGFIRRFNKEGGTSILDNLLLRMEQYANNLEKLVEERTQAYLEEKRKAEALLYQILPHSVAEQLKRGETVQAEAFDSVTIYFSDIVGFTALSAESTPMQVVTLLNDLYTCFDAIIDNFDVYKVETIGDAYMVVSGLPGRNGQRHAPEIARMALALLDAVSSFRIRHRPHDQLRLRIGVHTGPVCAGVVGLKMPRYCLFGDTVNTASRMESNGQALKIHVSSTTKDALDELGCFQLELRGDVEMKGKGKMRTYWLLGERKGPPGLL

[8] = target: Diacylglycerol kinase alpha (Homo sapiens) (UniProt P23743); assay: Inhibition of DGKA ATP labeling site harbouring in human A-375 cells at 5 uM by KiNativ Profiling analysis relative to control; assay type: cell-based
Sequence of Diacylglycerol kinase alpha (Homo sapiens) (P23743 whole entry): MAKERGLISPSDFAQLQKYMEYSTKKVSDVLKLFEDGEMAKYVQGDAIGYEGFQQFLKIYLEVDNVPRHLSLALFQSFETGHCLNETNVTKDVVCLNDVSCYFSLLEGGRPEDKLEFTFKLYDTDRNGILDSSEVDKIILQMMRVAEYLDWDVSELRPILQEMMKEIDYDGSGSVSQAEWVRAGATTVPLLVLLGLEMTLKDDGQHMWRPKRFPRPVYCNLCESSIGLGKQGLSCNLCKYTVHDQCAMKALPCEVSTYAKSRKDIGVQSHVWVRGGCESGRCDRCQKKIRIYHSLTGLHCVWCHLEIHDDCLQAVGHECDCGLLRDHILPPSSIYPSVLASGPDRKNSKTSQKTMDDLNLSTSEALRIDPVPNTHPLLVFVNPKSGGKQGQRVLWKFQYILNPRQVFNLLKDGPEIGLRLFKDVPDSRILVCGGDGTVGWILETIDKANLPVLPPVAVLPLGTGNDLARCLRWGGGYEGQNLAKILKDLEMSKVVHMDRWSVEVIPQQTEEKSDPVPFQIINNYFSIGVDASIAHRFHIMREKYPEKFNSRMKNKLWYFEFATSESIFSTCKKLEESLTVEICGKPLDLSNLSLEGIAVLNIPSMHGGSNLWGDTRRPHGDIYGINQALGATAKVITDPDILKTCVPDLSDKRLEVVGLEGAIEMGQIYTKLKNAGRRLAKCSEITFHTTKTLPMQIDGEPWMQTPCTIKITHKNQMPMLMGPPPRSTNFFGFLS

Sequence of Cyclin-dependent kinase 1 (Homo sapiens) (P06493 whole entry, looked up): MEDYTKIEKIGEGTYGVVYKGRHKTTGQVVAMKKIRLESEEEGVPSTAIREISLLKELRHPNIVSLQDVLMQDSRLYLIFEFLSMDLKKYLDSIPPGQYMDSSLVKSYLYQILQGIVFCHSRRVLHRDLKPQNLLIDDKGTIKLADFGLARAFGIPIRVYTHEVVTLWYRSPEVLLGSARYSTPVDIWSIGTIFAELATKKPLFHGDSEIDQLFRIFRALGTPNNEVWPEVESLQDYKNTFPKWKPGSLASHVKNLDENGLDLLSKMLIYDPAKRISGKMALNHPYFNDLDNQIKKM
Sequence of Serine/threonine-protein kinase 38 (Homo sapiens) (Q15208 2-465 limits assumed): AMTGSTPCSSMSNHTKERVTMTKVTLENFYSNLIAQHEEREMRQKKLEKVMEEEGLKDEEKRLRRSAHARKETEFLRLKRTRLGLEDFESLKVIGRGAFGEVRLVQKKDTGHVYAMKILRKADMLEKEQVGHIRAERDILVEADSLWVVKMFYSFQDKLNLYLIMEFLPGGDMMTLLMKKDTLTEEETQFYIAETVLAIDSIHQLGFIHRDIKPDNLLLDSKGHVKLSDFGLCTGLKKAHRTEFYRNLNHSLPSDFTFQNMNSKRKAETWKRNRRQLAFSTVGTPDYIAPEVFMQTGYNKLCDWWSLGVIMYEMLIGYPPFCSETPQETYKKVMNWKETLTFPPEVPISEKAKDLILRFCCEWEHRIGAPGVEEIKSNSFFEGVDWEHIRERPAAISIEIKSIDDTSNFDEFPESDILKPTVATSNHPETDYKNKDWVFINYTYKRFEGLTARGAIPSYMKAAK
Sequence of Ribosomal protein S6 kinase alpha-3 (Homo sapiens) (P51812 whole entry, the tested form may be a part): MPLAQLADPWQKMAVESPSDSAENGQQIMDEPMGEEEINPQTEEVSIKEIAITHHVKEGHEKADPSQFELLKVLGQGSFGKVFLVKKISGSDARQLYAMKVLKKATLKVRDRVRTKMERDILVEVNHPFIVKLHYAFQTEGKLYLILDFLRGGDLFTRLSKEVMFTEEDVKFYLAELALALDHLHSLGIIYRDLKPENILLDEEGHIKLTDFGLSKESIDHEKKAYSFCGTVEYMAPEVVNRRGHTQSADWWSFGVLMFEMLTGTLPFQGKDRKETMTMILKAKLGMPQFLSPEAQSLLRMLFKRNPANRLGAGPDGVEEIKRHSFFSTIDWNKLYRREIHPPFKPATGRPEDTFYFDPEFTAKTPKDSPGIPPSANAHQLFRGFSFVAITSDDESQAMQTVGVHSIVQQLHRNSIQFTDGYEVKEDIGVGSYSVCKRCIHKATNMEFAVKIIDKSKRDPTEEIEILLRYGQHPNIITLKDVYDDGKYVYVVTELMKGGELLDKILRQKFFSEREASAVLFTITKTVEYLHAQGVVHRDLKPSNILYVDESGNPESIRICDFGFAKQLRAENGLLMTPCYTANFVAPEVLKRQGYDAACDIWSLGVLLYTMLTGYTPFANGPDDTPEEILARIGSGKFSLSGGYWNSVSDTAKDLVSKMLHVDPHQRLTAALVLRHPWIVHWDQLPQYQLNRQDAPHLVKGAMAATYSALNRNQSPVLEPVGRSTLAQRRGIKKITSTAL
Sequence of Fibroblast growth factor receptor 3 (Homo sapiens), P22607 [G697C] (P22607 whole entry G697C): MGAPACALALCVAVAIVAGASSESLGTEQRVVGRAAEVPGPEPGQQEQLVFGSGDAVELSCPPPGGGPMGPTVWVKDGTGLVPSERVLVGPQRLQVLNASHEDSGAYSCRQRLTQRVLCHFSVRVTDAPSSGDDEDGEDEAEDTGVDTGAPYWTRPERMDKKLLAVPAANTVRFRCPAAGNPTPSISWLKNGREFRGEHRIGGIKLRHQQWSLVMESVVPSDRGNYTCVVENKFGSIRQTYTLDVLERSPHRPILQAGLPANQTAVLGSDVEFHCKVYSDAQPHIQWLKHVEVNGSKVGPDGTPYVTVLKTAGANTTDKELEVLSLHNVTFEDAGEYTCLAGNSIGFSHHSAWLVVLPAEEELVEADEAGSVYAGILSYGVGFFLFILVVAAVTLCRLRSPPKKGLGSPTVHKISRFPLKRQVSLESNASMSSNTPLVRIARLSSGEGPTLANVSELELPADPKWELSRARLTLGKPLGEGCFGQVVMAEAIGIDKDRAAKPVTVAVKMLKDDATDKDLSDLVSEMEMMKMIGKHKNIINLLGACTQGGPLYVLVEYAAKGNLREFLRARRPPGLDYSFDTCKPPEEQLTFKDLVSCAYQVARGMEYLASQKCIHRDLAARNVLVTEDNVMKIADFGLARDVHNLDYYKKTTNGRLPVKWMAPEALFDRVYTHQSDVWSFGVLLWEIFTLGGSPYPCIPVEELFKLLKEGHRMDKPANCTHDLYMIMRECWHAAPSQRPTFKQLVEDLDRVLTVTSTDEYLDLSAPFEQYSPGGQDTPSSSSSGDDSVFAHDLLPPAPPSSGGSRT
Sequence of Mitogen-activated protein kinase 15 (Homo sapiens) (Q8TD08 whole entry): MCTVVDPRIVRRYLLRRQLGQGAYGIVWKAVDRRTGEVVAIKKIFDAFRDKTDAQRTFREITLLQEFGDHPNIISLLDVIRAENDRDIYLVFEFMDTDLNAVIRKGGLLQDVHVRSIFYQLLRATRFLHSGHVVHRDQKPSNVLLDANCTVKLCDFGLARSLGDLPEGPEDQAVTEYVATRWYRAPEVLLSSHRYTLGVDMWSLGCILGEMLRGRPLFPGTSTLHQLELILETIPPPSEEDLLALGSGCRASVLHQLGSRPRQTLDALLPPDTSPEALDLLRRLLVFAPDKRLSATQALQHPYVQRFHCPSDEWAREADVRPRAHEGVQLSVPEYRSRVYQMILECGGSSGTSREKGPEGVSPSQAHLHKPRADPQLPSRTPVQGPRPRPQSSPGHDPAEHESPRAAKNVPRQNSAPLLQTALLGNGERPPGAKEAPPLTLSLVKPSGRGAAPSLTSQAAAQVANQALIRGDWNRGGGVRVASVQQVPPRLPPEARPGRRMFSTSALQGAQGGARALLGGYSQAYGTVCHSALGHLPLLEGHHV

CNc1cc(Oc2cc(C(=O)Nc3cc(N4CCN(C)CC4)cc(C(F)(F)F)c3)ccc2C)ncn1
inhibition [1]: 11.6%

CCN1CCN(Cc2ccc(NC(=O)c3ccc(C)c(Oc4ccnc5[nH]ccc45)c3)cc2C(F)(F)F)CC1
inhibition [2]: inactive
inhibition [3]: 16%
inhibition [4]: -3.3%

CCN1CCN(Cc2ccc(NC(=O)c3ccc(C)c(/C=C/c4cnc5[nH]ccc5c4OC)c3)cc2C(F)(F)F)CC1
inhibition [5]: -2.6%
inhibition [6]: 2.1%
inhibition [7]: -8.7%
inhibition [8]: -1.8%
